Key:
Dactolisib + Foretinib = compound: Cn1c(=O)n(-c2ccc(C(C)(C)C#N)cc2)c2c3cc(-c4cnc5ccccc5c4)ccc3ncc21 [Dactolisib] + COc1cc2c(Oc3ccc(NC(=O)C4(C(=O)Nc5ccc(F)cc5)CC4)cc3F)ccnc2cc1OCCCN1CCOCC1 [Foretinib] (partner 0.25 µM); test: relative viability (nuclei count vs DMSO), 5 days (fraction); higher = more cells survive
How it was run: (§1)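 Relative viability equals treated-well nuclei counts divided by vehicle-well nuclei counts. Counts came from 4× images of lung cancer cell lines grown in 1536-well plates for 5 days after pin-tool dosing on the day after seeding. Dosing used one drug alone or a fixed anchor-drug dose plus five library-drug doses (not always all listed) in √10 steps, and values are medians of duplicate plates.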

AZ505 + Navitoclax = compound: C1CCC(CC1)N(CCNCCC2=C3C(=C(C=C2)O)NC(=O)CO3)C(=O)CCNCCC4=CC(=C(C=C4)Cl)Cl [AZ505] + CC1(C)CCC(c2ccc(Cl)cc2)=C(CN2CCN(c3ccc(C(=O)NS(=O)(=O)c4ccc(N[C@H](CCN5CCOCC5)CSc5ccccc5)c(S(=O)(=O)C(F)(F)F)c4)cc3)CC2)C1 [Navitoclax] (partner 0.5 µM); test: as above
How it was run: as §1

Cell Line | relative viability (Dactolisib + Foretinib; first compound 0.002 µM) | relative viability (Dactolisib + Foretinib; first compound 0.006325 µM) | relative viability (Dactolisib + Foretinib; first compound 0.02 µM) | relative viability (Dactolisib + Foretinib; first compound 0.06325 µM) | relative viability (Dactolisib + Foretinib; first compound 0.2 µM) | relative viability (AZ505 + Navitoclax; first compound 0.08 µM) | relative viability (AZ505 + Navitoclax; first compound 0.253 µM) | relative viability (AZ505 + Navitoclax; first compound 0.8 µM) | relative viability (AZ505 + Navitoclax; first compound 2.53 µM) | relative viability (AZ505 + Navitoclax; first compound 8 µM)
EKVX | 0.598 | 0.743 | 0.652 | 0.715 | 0.568 | 0.84 | 0.961 | 0.986 | 0.994 | 1.03
LXF-289 | 1.02 | 0.952 | 0.99 | 0.987 | 0.827 | 0.891 |  | 0.919 | 0.881 | 0.935
ABC-1 | 1.03 | 1.11 | 0.665 | 0.427 | 0.5 |  |  |  |  | 
NCI-H650 | 0.981 | 1.02 | 1.05 | 0.712 | 0.426 |  |  |  |  | 
NCI-H1650 | 1.08 | 1.05 | 0.919 | 0.781 | 0.531 | 1.21 | 1.34 | 1.25 | 1.15 | 1.14
NCI-H2085 | 1.09 | 1.05 | 0.747 | 0.337 | 0.301 | 1.08 | 1.12 | 1.04 | 1.06 | 1.2
NCI-H1793 | 0.655 | 0.416 | 0.241 | 0.2 | 0.166 | 0.352 | 0.405 | 0.455 | 0.396 | 0.428
LC-2-ad | 1.08 | 0.917 | 0.839 | 0.545 | 0.551 | 0.285 | 0.594 | 0.528 | 0.491 | 0.54
COR-L 105 | 0.926 | 1 | 0.832 | 0.859 | 0.417 | 0.772 | 0.692 | 0.83 | 0.844 | 0.778
NCI-H1355 | 1.05 | 0.902 | 0.664 | 0.509 | 0.223 | 0.883 | 0.864 | 0.908 | 0.915 | 0.987
H3255 | 0.989 | 0.851 | 0.793 | 0.724 | 0.772 | 0.439 | 0.526 | 0.529 | 0.698 | 0.615
NCI-H1993 | 0.706 | 0.774 | 0.61 | 0.473 | 0.492 | 0.859 | 0.911 | 0.86 | 1.01 | 0.917
NCI-H1734 | 0.837 | 0.773 | 0.805 | 0.467 | 0.284 | 0.802 | 0.836 | 0.755 | 0.736 | 0.774
HOP-62 | 1.26 | 1.1 | 0.974 | 0.747 | 0.516 | 0.946 | 1.1 | 0.972 | 1.03 | 0.992
LOU-NH91 | 0.897 | 0.921 | 0.9 | 0.658 | 0.548 | 0.612 | 0.694 | 0.657 | 0.657 | 0.804
ChaGo-K-1 | 0.908 | 0.919 | 0.886 | 0.835 | 0.926 | 1.02 | 0.856 | 1.04 | 1.14 | 1.07
NCI-H2228 | 0.875 | 0.675 | 0.406 | 0.191 | 0.181 | 0.889 | 0.978 | 0.692 | 0.716 | 0.612
